# In patent US8628753B2, “Reduced dye probes for the detection of radical oxygen species” (Emory University, priority 2008, dated 2014):
# Columns and labels:
# [1] = Fluorescence of hydrocyanines before and after reaction with superoxide (KO2); assay type: physicochemical; details: for λem: emission wavelength of the corresponding oxidized product; for λex: excitation wavelength of the corresponding oxidized product; for Fold Increase in Intensity: oxidized versus reduced dye, 7.5 μM in 1 mL methanol, oxidized with 20 μL DMSO containing 20 mM KO2
# Description: Superoxide (O2^−) was created by the enzymatic reaction of XA/XO (10 lm/10 mU) at 25° C. for 5 min (XA=[…]). XA/XO (10 lm/10 mU) was added to buffered solutions of Hydro-Cy3 ([…]) maintained in a 37° C. water bath. The fluorescence emission of each reaction mixture was measured at 5-min intervals against a reagent blank using a fluorescence spectrometer. In some cases solid KO2 (1 mg) or KO2 dissolved in DMSO was added to a Hydro-IR-786 solution in methanol or DMSO and the emission spectra was recorded. Alternatively, hydro-IR-786 (2 mg) was dissolved in 1 mL of ethanol and 50 μL of […] KO2 solution (7 mg KO2 was dissolved in 10 mL dimethylsulfoxide) was added and stirred for 15 min before recording the emission spectra.
# [2] = test system: live, explanted mouse aortas; assay: Detection of ROS in live, explanted mouse aortas after LPS stimulation; parameters: species or system C57B1/6 mice; details: for detection of ROS in tissue explants (LPS versus PBS): confocal fluorescent imaging
# Description: The ability of hydrocyanines to detect ROS from live, explanted mouse aortas, after lipopolysaccharide endotoxin (LPS) stimulation to produce ROS, was evaluated. The detection of ROS in live tissue can provide information about ROS production in a physiological environment that closely resembles in vivo conditions. C57B1/6 mice were treated with either 16 mg/kg lipopolysaccharide endotoxin (LPS) or PBS for 16 hours and then euthanized. The aortas of the mice were isolated and incubated with either Hydro-Cy3 or Hydro-Cy3+TEMPOL for 15 minutes. Sections of the aorta were made, fixed with 10% formalin, and mounted en face.
# For example, the fluorescence intensity of the LPS-treated slide was 183.2 RFU/S compared to 46.9 RFU/S in the PBS-treated mice. Application of TEMPOL (small molecule cell-permeable superoxide dismutase mimetic1, which attenuates superoxide anion and peroxynitrite-induced inflammation) to mouse aortas, treated with LPS, reduced the fluorescence to control levels.
# [3] = test system: rat aortic smooth muscle (RASM) cells; assay: Detection of ROS in RASM cells during Ang II mediated cell signaling; assay type: cell-based; details: for background fluorescence / detection of intracellular ROS after Ang II stimulation: 10 minutes; for detection of intracellular ROS after Ang II stimulation: fluorescent microscopy
# Description: The ability of hydrocyanines to detect ROS in rat aortic muscle (RASM) cells during angiotensin (Ang) II mediated cell signaling was evaluated using fluorescence spectroscopy. Ang II-mediated ROS production in aortic smooth muscle cells has been implicated in the development of atherosclerosis and hypertension.
# […] […] It is evident from fluorescence measurements that hydro-Cy3 is sensitive enough to detect even the ROS production by normal cells, causing relatively higher background fluorescence. On the other hand, because of the tuned reaction rate, deutero-Cy3 can only detect the overproduction of ROS during Ang-II mediated ROS over-production.
# The ability of D-DHE to detect ROS in rat aortic muscle (RASM) cells during angiotensin (Ang) II mediated cell signaling was evaluated using fluorescence spectroscopy. A comparative cell-culture study between DHE and D-DHE was conducted to evaluate the ability of DHE and D-DHE to detect ROS production in rat aortic smooth muscle (RASM) cells, during angiotensin (Ang) II mediated cell signaling.
# […] […] Stimulation of RASMs with Ang II was not detected with DHE due to the high level background fluorescence.
# [4] = Stability of reduced dyes to autooxidation; details: for half-life: buffer, pH 7.4
# Description: A solution of hydrocyanine in PBS buffer (pH 7.4) was placed in an Eppendorf tube and placed in a 37° C. water bath. Stability was measured by monitoring the formation of the oxidation product using fluorescence spectroscopy over a 24 hour period. The excitation and emission wavelengths for DHE were 515 and 590 nm.
# The stability of deuterocyanines was evaluated in the same manner.
# [5] = test system: carotid arteries; assay: DHE staining of carotid artery sections after carotid ligation; parameters: species or system Mice; details: 10 μmol/L in PBS, 30 minutes at 37° C.; 14 days after ligation
# Description: Mice were anesthetized with ketamine/xylazine and their left carotid arteries were exposed and tied with a 6-0 silk suture 1 cm below the bifurcation as described in the literature. The control was sham operated mice. The mice were sacrificed 14 days after ligation and their carotid arteries were isolated and frozen, enzymatically-intact, and 30 μm-thick sections of sham operated and injured carotid arteries were made. The frozen sections were incuvated with DHE (10 μmol/L) in PBS for 30 minutes at 37° C. in a humidified chamber protected form light. DHE is oxidized on reaction with superoxide to ethidium bromide, which binds to DNA in the nucleus and fluoresces red. The DHE stained slides were imaged on a confocal microscope. The ethidium bromide fluorescence was detected using a 543 nm He—Ne laser for excitation and a 560 nm long pass filter for emission. The autofluorescence of the elastic laminae was detected using a 488 nm Ar laser for excitation combined with a 500-550 nm band pass filter for emission.
# [6] = test system: ROS production generated by activated macrophages and neutrophils; assay: In vivo imaging of ROS in LPS model of acute inflammation; parameters: species or system C57B1/6 mice; details: 5 nanomoles i.p., 6 hours after LPS (1 mg i.p.); abdominal area; FIG. 7
# Description: The ability of hydrocyanines to image ROS production, in vivo, generated by activated macrophages and neutrophils, in an LPS model of acute inflammation was evaluated. Nine C57B1/6 mice were divided into three groups: Group I was given an intraperitoneal (i.p.) injection of LPS (1 mg in 400 μL saline); Group II was given saline (400 μL); and Group III was untreated. After 6 hours, the mice were anaesthetized, their abdominal fur was removed, and the LPS and saline treated mice were injected i.p. with Hydro-Cy7 (5 nanomoles in 50 μL methanol). The mice were images as triplets, one from each group, using a Kodak FX in vivo images with a 700 nm excitation laser and a 790 nm emission filter. […] The mean fluorescent intensity, from the abdominal area, from the three sets of mice was also quantified using Image-Pro software. LPS-treated mice had approximately two-fold higher fluorescence intensity than the saline group.
# [7] = Specificity to various reactive oxygen species; details: 50 μM probe in PBS with 1% methanol; equimolar ROS; 5 minutes at 25° C.; FIG. 5
# Description: A 50 μm Hydro-Cy7 solution was prepared in phosphate buffered saline (PBS) containing 1% methanol. Various reactive oxygen species were added to the 50 μm Hydro-Cy7 solution, at an equimolar ratio to Hydro-Cy7, and the fluorescence intensity was recorded after incubating 5 minutes at 25° C. Superoxide (O2^−) was added as solid KO2. Stock solutions of hydrogen peroxide, t-butyl hydrogen peroxide (TBHP), hypochlorite, 3-morpholinosydnonimine (SIN-1), glutathione (GSH), and 1,4-hydroquinone were prepared and added to the Hydro-Cy7 solution to generate a final concentration of 50 μM. 3-(aminopropyl)-1-hydroxy-3-isopropyl-2-oxo-1-triazene (NOC-5, 1 mM) was prepared as a 10 mM sodium hydroxide solution and added to the Hydro-Cy7 solution to generate a final concentration of 50 μM. The hydroxide and butoxy radicals were generated in situ by reacting hydrogen peroxide and t-butylperoxide with Fe^2+. A 50 μM Hydro-Cy7 solution, in PBS, containing 500 μM Fe^2+ was prepared and either hydrogen peroxide or t-butyl hydrogen peroxide was added to this solution to generate a final concentration of 50 μM.
# [8] = Sensitivity of DHE and D-DHE to Fenton's reagent in PBS; details: 50 μM probe in PBS; FIG. 4
# Description: The sensitivity of deuterohydroethydium (D-DHE or DDE) was evaluated in the same manner. A 50 μM solution of DHE or D-DHE (DDE) in PBS buffer was treated with Fenton's reagent (using 1-60 nM H2O2 with Fe^2+) and the fluorescence of the oxidized product was measured.
# [9] = Sensitivity to hydroxide radical generated from H2O2 and Fe2+
# Description: Hydroxide radicals were generated in situ by reacting hydrogen peroxide with Fe^2+. Various quantities of hydrogen peroxide (H2O2) stock solutions were added to a solution of hydrocyanine in methanol to generate hydrogen peroxide concentrations from about 2 to about 30 nM. Aqueous Fe^2+(1 μM) was added to the reduced dye/H2O2 solution to generate a 200 nM concentration. The resulting solution was kept at ambient temperature for 5 minutes and the fluorescence intensity was measured (λex/λem) against a reagent blank (control solution containing only reagent) simultaneously.
# This measurement was carried out using 100 μM of Hydro-ICG at 25° C. The hydroxide radical was generated using the procedure described above.
# [10] = test system: RASM cells; assay: Trypan blue cell viability assay; assay type: cell-based, rat; details: experimental conditions of RASM assay and higher concentrations (1 mM)
Structure (SMILES),λem [1] [nm],λex [1] [nm],half-life [4] [h],detection of ROS in tissue explants (LPS versus PBS) [2],background fluorescence ([3]; probe 10 μM),detection of intracellular ROS after Ang II stimulation ([3]; probe 10 μM),detection of ROS (fluorescence) in cells incubated with Ang II ([3]; probe 100 μM),Fold Increase in Intensity [1] [fold],also measured
"CCN1c2cc(N)ccc2-c2ccc(N)cc2C1c1ccccc1 (centres unmarked) [DHE, dihydroethydium, reference compound]",590,515,0.5,failed to detect ROS,large amount of background fluorescence,not detected,failed to detect ROS,,ROS detection in ligated versus sham carotid artery sections [5]: increased red fluorescence compared to the sham mice
CN1/C(=C/C=C/C=C/C2N(C)c3ccc4ccccc4c3C2(C)C)C(C)(C)c2c1ccc1ccccc21 (centres unmarked) [Hydro-IR-676],693,675,,,,,,100,
"[2H]C1(c2ccccc2)c2cc(N)ccc2-c2ccc(N)cc2N1CC [D-DHE, deuterohydroethydium]",,,,,very low levels of background fluorescence,significant increase in fluorescence,,,"concentration range in which ROS is accurately measured [8]: 5 to 60 nM; change in fluorescence on application of TEMPOL ([3]; cells treated with probe (10 μM) and Ang II): dramatic decrease in fluorescence; detection of intracellular ROS after Ang II stimulation ([3]; probe 10 μM, listed as DDE): significantly better than DHE; increase in stability versus DHE [4]: 4-6 fold"

# Further lines, with some results ahead:
λem [1] [nm],λex [1] [nm],half-life [4] [h],Structure (SMILES),detection of ROS in tissue explants (LPS versus PBS) [2],background fluorescence ([3]; probe 10 μM),detection of intracellular ROS after Ang II stimulation ([3]; probe 10 μM),detection of ROS (fluorescence) in cells incubated with Ang II ([3]; probe 100 μM),Fold Increase in Intensity [1] [fold],also measured
760,735,~72,CCN1/C(=C/C=C/C=C/C=C/C2N(CC)c3ccccc3C2(C)C)C(C)(C)c2ccccc21 (centres unmarked) [Hydro-Cy7],,,,,104,fluorescence intensity of LPS-treated mice relative to saline group [6]: approximately two-fold; ROS specificity [7]: specificity for superoxide and hydroxyl radical
560,535,~72,CCN1/C(=C/C=C/C2N(CC)c3ccccc3C2(C)C)C(C)(C)c2ccccc21 (centres unmarked) [Hydro-Cy3],significantly higher fluorescence intensity,,,intense intracellular fluorescence,118,"concentration range of linear concentration curve against hydroxide radical [9]: 5 to 50 nM; detected concentration of hydroxide radical [9]: 5 nM; integrated total fluorescence intensity ([2]; aortas of LPS-treated mice (16 mg/kg, 16 hours), probe 15 minutes): 183.2 RFU/S; integrated total fluorescence intensity ([2]; aortas of LPS-treated mice, probe + TEMPOL): 34.9 RFU/S; integrated total fluorescence intensity ([2]; aortas of PBS-treated mice): 46.9 RFU/S; change in fluorescence on application of TEMPOL ([3]; cells treated with probe (100 μM) and Ang II): dramatic decrease in fluorescence; background fluorescence ([3]; probe 50 μM): relatively higher amounts of background fluorescence; fluorescence of cells incubated with probe alone ([3]; probe 100 μM, no Ang II): significantly less fluorescence; cellular toxicity [10]: no cellular toxicity"
